# Source: patent US12583861B2, “Derivatives of imidazo[4,5-d]pyridazine, their preparation and their therapeutic application” (SANOFI, priority 2021, dated 2026)
# Experiments:
# Assay type in all cases: cell-based
# human TLR7 = target: T1, human TLR7 (Homo sapiens, UniProt Q9NYK1); assay: HEK-Blue hTLR7 reporter cell assay (SEAP, NF-kB/AP-1) for stimulation of human TLR7; details: HEK-Blue hTLR7 cells; for EC50: 24 h incubation, SEAP readout, read-out: TLR7_EC50; for activation at 20 µM: 24 h, at 20000 nM
# T1 construct: host or cells: HEK293 (HEK-Blue hTLR7)
# T1 sequence (Q9NYK1 27-1049): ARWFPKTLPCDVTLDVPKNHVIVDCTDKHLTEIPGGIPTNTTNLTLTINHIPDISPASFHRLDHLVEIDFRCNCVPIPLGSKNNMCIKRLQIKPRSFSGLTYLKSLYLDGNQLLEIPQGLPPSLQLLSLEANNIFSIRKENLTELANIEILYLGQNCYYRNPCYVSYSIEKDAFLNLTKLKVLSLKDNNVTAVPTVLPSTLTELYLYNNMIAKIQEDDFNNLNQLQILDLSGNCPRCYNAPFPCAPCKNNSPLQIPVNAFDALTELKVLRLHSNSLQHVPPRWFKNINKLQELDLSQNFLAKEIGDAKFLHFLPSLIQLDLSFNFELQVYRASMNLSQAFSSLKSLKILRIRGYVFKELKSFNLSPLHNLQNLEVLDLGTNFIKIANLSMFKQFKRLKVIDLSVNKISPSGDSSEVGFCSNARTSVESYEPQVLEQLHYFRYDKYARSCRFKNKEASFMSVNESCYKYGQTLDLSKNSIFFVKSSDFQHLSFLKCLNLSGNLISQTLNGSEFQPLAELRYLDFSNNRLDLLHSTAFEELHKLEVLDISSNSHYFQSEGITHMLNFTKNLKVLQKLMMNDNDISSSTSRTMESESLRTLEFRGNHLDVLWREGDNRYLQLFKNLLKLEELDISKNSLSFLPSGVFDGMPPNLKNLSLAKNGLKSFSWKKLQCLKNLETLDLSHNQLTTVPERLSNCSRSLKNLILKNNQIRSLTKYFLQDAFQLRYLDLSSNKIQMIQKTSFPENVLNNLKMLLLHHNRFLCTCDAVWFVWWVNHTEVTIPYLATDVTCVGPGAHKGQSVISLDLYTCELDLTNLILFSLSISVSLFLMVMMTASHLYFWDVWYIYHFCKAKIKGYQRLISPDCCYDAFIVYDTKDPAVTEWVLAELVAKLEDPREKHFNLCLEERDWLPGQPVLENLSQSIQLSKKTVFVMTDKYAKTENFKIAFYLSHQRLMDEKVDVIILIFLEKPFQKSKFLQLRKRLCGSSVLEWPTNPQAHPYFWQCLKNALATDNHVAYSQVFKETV
# Method in brief: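 Activity expressed as EC50 for half-maximal SEAP induction. Compounds, serially diluted 3-fold from 20 to 0.01 μM, were incubated 24 h at 37 °C, 5% CO2 with HEK-Blue hTLR7 reporter cells (3.10E4/well, plated 18–24 h earlier); supernatant developed with QUANTI-Blue.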
# TNF-α = TNF-α cytokine activation in human PBMC (MSD assay); details: Homo sapiens, PBMC, 24 h
# Method: (§1) The other below tests involving measuring the in vitro activity of some compounds of the disclosure on cytokines IFN-α2a, IL-6, IL29 and TNF-α were carried out using human PBMC (PBMCs).
# (§2) The activity described below, with respect to TLR7, TLR8, IFN-α2a, IL-6, IL29 and TNF-α, is given by the half maximal effective concentration (EC50), which corresponds to the concentration required to obtain a 50% of the activation. The lower the EC50, the less the concentration of the compound is required to produce 50% of maximum activation and the higher the potency.
# (§3) In Vitro Assay to Determine IFN-α2a, IL-6, IL29 and TNF-α Cytokine Activation:
# (§4) Peripheral blood mononuclear cells were isolated by Ficoll density gradient centrifugation from peripheral blood samples obtained from healthy donors (EFS). Isolated PBMCs are washed twice with PBS and resuspended in RPMI-1640 medium supplement with 10% fetal bovine serum (FBS) at 5.10^5 cells/well in a 96-well plate. The cells were then incubated with the compounds to test at various doses (20 μM to 4.8.10-6 μM final) for 24 h at 37° C., 5% CO2. After 24 h treatment, the plates are centrifuged and the supernatant were collected and assayed for cytokines IFN-α2a, IL-6, IL29 and TNF-α using the Meso Scale Discovery (MSD) assay platform according to the manufacturer's instructions. Briefly, 25 μL of cell culture supernatants were incubated for 1 h at Room Temperature (RT) in custom Multi-Spot 96-well plates prior coated with capture antibodies. After washing, SULFO-TAG® labeled detection antibodies were added to each of the wells and incubated for 1 h RT before adding a read buffer.
# IFN-α2a = IFN-α2a cytokine activation in human PBMC (MSD assay); details: Homo sapiens, PBMC, 24 h
# Method: as §1, §2, §3, §4
# IL29 = IL29 cytokine activation in human PBMC (MSD assay); details: Homo sapiens, PBMC, 24 h
# Method: as §1, §2, §3, §4
# IL-6 = IL-6 cytokine activation in human PBMC (MSD assay); details: Homo sapiens, PBMC, 24 h, read-out: IL6 EC50
# Method: as §1, §2, §3, §4
# human TLR8 = target: T2, human TLR8 (Homo sapiens, UniProt Q9NR97); assay: HEK-Blue hTLR8 reporter cell assay (SEAP, NF-kB/AP-1) for stimulation of human TLR8; details: HEK-Blue hTLR8 cells; for activation at 20 µM: 24 h, at 20000 nM
# T2 construct: host or cells: HEK293 (HEK-Blue hTLR8)
# T2 sequence (Q9NR97 27-1041): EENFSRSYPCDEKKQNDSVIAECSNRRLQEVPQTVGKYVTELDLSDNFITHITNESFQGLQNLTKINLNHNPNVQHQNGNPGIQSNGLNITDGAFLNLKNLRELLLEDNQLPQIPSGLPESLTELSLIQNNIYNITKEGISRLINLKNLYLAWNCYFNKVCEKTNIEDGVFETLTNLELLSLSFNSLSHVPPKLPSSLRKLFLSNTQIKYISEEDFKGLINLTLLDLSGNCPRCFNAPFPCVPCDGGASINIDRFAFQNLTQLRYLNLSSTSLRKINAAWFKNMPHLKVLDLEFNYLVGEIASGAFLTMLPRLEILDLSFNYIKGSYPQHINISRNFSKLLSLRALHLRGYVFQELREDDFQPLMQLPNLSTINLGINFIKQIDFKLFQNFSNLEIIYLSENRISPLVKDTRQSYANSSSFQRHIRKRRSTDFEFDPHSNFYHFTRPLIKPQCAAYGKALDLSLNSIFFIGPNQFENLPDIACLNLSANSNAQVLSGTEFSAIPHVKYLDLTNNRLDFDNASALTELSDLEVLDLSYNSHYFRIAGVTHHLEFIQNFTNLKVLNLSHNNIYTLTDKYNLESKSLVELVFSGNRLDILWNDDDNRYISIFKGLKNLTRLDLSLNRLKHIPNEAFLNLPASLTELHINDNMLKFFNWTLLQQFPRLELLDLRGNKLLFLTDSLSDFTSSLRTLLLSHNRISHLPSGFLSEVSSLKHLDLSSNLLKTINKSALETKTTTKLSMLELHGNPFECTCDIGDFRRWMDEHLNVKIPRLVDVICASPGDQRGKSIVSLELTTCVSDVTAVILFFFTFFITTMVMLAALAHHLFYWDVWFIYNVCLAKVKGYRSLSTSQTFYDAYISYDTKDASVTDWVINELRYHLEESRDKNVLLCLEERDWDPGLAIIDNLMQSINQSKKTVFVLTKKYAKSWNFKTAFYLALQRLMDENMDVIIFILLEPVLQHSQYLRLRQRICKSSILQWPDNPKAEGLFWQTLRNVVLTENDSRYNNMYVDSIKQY
# Method in brief: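 Stimulation is quantified as secreted alkaline phosphatase in supernatant using QUANTI-Blue™ substrate. Reporter HEK293 line co-transfected with hTLR8 and SEAP under an IFN-β minimal promoter with five NF-κB/AP-1 sites; 3.10E4 cells/well, 18 to 24 h pre-culture at 37° C. before compounds.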
SMILES,EC50 (human TLR7) [nM],EC50 (TNF-α) [nM],EC50 (IFN-α2a) [nM],EC50 (IL29) [nM],EC50 (IL-6) [nM],activation at 20 µM (human TLR7) [%],activation at 20 µM (human TLR8) [%],"EC50 (human TLR8; 24 h incubation, SEAP readout, read-out: TLR8_EC50) [nM]"
CCCCc1nc2c(N)nnc(OC(C)C)c2n1C[C@H]1CC[C@H](CN)CC1 [Compound 20],28,2400,0.3,0.3,83,–,–,–
"CCCCc1nc2c(N)nnc(N(C)Cc3ccc(CN(C)C)cc3)c2n1C [Compound 43, 2-butyl-N7-(4-((dimethylamino)methyl)benzyl)-N7,1-dimethyl-1H-imidazo[4,5-d]pyridazine-4,7-diamine]",–,21,22,15,3,–,–,–
"CCCNc1nc2c(N)nnc(OC(C)C)c2n1Cc1ccc(CN)cc1 [Compound 163, 3-[[4-(aminomethyl)phenyl]methyl]-4-isopropoxy-N2-propyl-imidazo[4,5-d]pyridazine-2,7-diamine]",–,–,–,–,–,16.7,15.4,–
"CCNCc1nc2c(N)nnc(OC(C)C)c2n1Cc1ccc(CN)cc1 [Compound 164, 3-[[4-(aminomethyl)phenyl]methyl]-2-(ethylaminomethyl)-4-isopropoxy-imidazo[4,5-d]pyridazin-7-amine]",–,–,–,–,–,4.8,10.8,–
"CCCCc1nc2c(N)nnc(OC(C)C)c2n1CC1CCNCC1 [Compound 165, 2-butyl-7-isopropoxy-1-(piperidin-4-ylmethyl)-1H-imidazo[4,5-d]pyridazin-4-amine]",1570,–,–,–,–,–,–,> 20000
